From the supplement of paper PMC11061612

Assays:
Assay in all cases: combination Emax (second highest fraction inhibited in the dose matrix, 72 h); higher = more inhibition; extreme values may be limits of the assay
[1] = test system: MDA-MB-157 (Breast Carcinoma)
Summary of the method: (§1)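 After 24 hours at 37°C and 5% CO2 in 1536-well plates, cells in DMEM/F12 or RPMI plus 10% FBS received two-drug dose matrices for 72 hours. Viability came from CellTiter-Glo 2.0 luminescence and was scaled as inhibition, anchored at 0 by vehicle wells and at 1 by blank wells. Combination Emax is taken as the second-highest inhibition in the matrix, and Bliss excess as the observed combination effect less EA + EB − EA·EB, with EA and EB the single-agent effects.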

[2] = test system: KATOIII (Gastric Carcinoma)
Summary of the method: as §1

[3] = test system: LS-513 (Colorectal Carcinoma)
Summary of the method: as §1

[4] = test system: SK-N-FI (Neuroblastoma)
Summary of the method: as §1

[5] = test system: SW756 (Cervical Carcinoma)
Summary of the method: as §1

[6] = test system: DOV13 (Ovarian Carcinoma)
Summary of the method: as §1

[7] = test system: SW1990 (Pancreatic Carcinoma)
Summary of the method: as §1

[8] = test system: NCI-H1793 (Lung Adenocarcinoma)
Summary of the method: as §1

[9] = test system: SW1783 (Low Grade Glioma)
Summary of the method: as §1

[10] = test system: MFH-ino (Other Solid Carcinomas)
Summary of the method: as §1

[11] = test system: JiyoyeP-2003 (Burkitt's Lymphoma)
Summary of the method: as §1

[12] = test system: SW1088 (Low Grade Glioma)
Summary of the method: as §1

[13] = test system: KARPAS-1106P (B-Cell Non-Hodgkin's Lymphoma)
Summary of the method: as §1

[14] = test system: 697 (B-Lymphoblastic Leukemia)
Summary of the method: as §1

[15] = test system: SN12C (Kidney Carcinoma)
Summary of the method: as §1

[16] = test system: C3A (Hepatocellular Carcinoma)
Summary of the method: as §1

[17] = test system: NCI-H1694 (Small Cell Lung Carcinoma)
Summary of the method: as §1

[18] = test system: TE-5 (Esophageal Squamous Cell Carcinoma)
Summary of the method: as §1

[19] = test system: SW780 (Bladder Carcinoma)
Summary of the method: as §1

[20] = test system: NCI-H1299 (Non-Small Cell Lung Carcinoma)
Summary of the method: as §1

Structure (SMILES) | combination Emax [1] | combination Emax [2] | combination Emax [3] | combination Emax [4] | combination Emax [5] | combination Emax [6] | combination Emax [7] | combination Emax [8] | combination Emax [9] | combination Emax [10] | combination Emax [11] | combination Emax [12] | combination Emax [13] | combination Emax [14] | combination Emax [15] | combination Emax [16] | combination Emax [17] | combination Emax [18] | combination Emax [19] | combination Emax [20]
CN(CCO)CC[C@H](CSc1ccccc1)Nc1ccc(S(=O)(=O)NC(=O)c2ccc(N3CCC([C@@H](O)c4ccccc4-c4ccc(Cl)cc4)CC3)cc2)cc1S(=O)(=O)C(F)(F)F [AZD4320] + CCN(CCO)CCCOc1ccc2c(Nc3cc(CC(=O)Nc4cccc(F)c4)[nH]n3)ncnc2c1 [AZD2811] (first compound max 1 µM, 7x7, partner max 1 µM) | 0.257 | 0.0347 | 0.414 | 0.206 | 0.157 | 0.908 | 0.183 | 0.283 | 0.412 | 0.102 | 0.827 | 0.306 | 0.215 | 1 | 0.169 | 0.22 | 0.94 | 0.478 | 0.803 | 0.228
CN(CCO)CC[C@H](CSc1ccccc1)Nc1ccc(S(=O)(=O)NC(=O)c2ccc(N3CCC([C@@H](O)c4ccccc4-c4ccc(Cl)cc4)CC3)cc2)cc1S(=O)(=O)C(F)(F)F [AZD4320] + CN(C)CCCOc1ccc(-c2ccc3ncc4c(c3c2)n(C2CCOCC2)c(=O)n4C)cn1 [AZD0156] (first compound max 1 µM, 7x7, partner max 1 µM) | 0.0946 | 0.0663 | 0.2 | 0.17 | 0.133 | 0.731 | 0.079 | 0.253 | 0.52 | 0.102 | 0.645 | 0.164 | 0.146 | 1 | 0.169 | 0.248 | 0.718 | 0.43 | 0.521 | 0.149
CN(CCO)CC[C@H](CSc1ccccc1)Nc1ccc(S(=O)(=O)NC(=O)c2ccc(N3CCC([C@@H](O)c4ccccc4-c4ccc(Cl)cc4)CC3)cc2)cc1S(=O)(=O)C(F)(F)F [AZD4320] + C[C@@H](Nc1cc(F)cc(F)c1)c1cc(C(=O)N(C)C)cc2c(=O)cc(N3CCOCC3)oc12 [AZD8186] (first compound max 1 µM, 7x7, partner max 3 µM) | 0.349 | 0.135 | 0.708 | 0.395 | 0.373 | 0.916 | 0.388 | 0.342 | 0.663 | 0.397 | 0.789 | 0.515 | 0.951 | 1 | 0.331 | 0.632 | 0.978 | 0.636 | 0.742 | 0.297
CN(CCO)CC[C@H](CSc1ccccc1)Nc1ccc(S(=O)(=O)NC(=O)c2ccc(N3CCC([C@@H](O)c4ccccc4-c4ccc(Cl)cc4)CC3)cc2)cc1S(=O)(=O)C(F)(F)F [AZD4320] + Cc1cc2ncnn2cc1Nc1ncc2c(n1)n(C1CCOCC1)c(=O)n2C [AZD7648] (first compound max 1 µM, 7x7, partner max 10 µM) | 0.0975 | 0.151 | 0.155 | 0.201 | 0.112 | 0.779 | 0.0867 | 0.356 | 0.366 | 0.161 | 0.639 | 0.332 | 0.313 | 1 | 0.145 | 0.248 | 0.76 | 0.531 | 0.484 | 0.268
CN(CCO)CC[C@H](CSc1ccccc1)Nc1ccc(S(=O)(=O)NC(=O)c2ccc(N3CCC([C@@H](O)c4ccccc4-c4ccc(Cl)cc4)CC3)cc2)cc1S(=O)(=O)C(F)(F)F [AZD4320] + Cn1cnc2c(F)c(Nc3ccc(Br)cc3Cl)c(C(=O)NOCCO)cc21 [Selumetinib] (first compound max 1 µM, 7x7, partner max 3 µM) | 0.366 | 0.29 | 0.941 | 0.554 | 0.47 | 0.747 | 0.557 | 0.248 | 0.706 | 0.421 | 0.84 | 0.289 | 0.769 | 1 | 0.337 | 0.847 | 0.957 | 0.597 | 0.78 | 0.3
COc1nnc2ccc(N3CCC(c4ccc(OCCN5CCN(C)C(=O)[C@H]5C)cc4)CC3)nn12 [AZD5153] + C=CCn1c(=O)c2cnc(Nc3ccc(N4CCN(C)CC4)cc3)nc2n1-c1cccc(C(C)(C)O)n1 [AZD1775] (first compound max 1 µM, partner max 1 µM) | 0.636 | 0.473 | 0.728 | 0.641 | 0.426 | 0.826 | 0.24 | 0.358 | 0.41 | 0.473 | 0.944 | 0.513 | 0.884 | 1 | 0.165 | 0.718 | 0.714 | 0.383 | 0.429 | 0.777
